Like-named read-outs stand apart in the source and are kept apart here.
Key:
HepG2 cells [1] = details: from 15 min after simultaneous incubation with TBHP (IC50 concentration); oximes about 10-fold below IC50; cited from earlier work
HepG2 cells [2] = assay: Intracellular RONS detection with DCFH-DA fluorescent probe; type: cell-based, human; details: IC50 concentration
Protocol: (§1) Two different fluorescent dyes, i.e., 2,7-dichlorodihydrofluorescein diacetate (DCFH-DA, Cayman Chemicals Company, Ann Arbor, MI) and dihydroethidium (DHE, Sigma-Aldrich, St. Louis, MO) were utilized for the determination of intracellular levels of RONS after 1, 4, and 24 h of incubation with tested oxime reactivators or TBHP (positive control). Cells incubated with oxime-free DMEM represented untreated control. After the incubation, the experimental medium was removed and replaced with a solution of DCFH-DA or DHE at concentrations of 20 and 5 μmol/L, respectively. The cells were subsequently incubated at 37 °C in a CO2 incubator for 45 min. Afterward, the fluorescence intensity of each well was measured using a Spark multimode microplate reader at an excitation wavelength of 485 nm for DCFH-DA or 528 nm for the DHE probe and an emission wavelength of 535 or 590 nm, respectively. Each experiment was carried out in triplicate and repeated three independent times.
(§2) The toxicological indices IC50 were calculated from control-subtracted triplicates using nonlinear regression (four parameters) using GraphPad Prism 9 software version 9.3.0 (GraphPad Software Inc., San Diego, CA). One-way analysis of variance (ANOVA) followed by Dunnetʼs multiple comparison test was used for RONS, MDA, NP-SH, and NP-SS-NP statistical analysis by GraphPad Prism 9 software, version 9.3.0. Data are expressed as means ± standard deviation (SD) of three independent measurements (n = 3). Significant differences between oxime-treated and untreated control groups (p ≤ 0.05) were marked by an asterisk (*).

HepG2 cells [3] = assay: Intracellular RONS detection with DHE fluorescent probe; type: cell-based, human; details: IC50 concentration; for increase of free radicals/RONS (DHE probe) vs negative control: 1 h incubation
Protocol: as §1, §2

HepG2 cells [4] = assay: Flow cytometric detection of cell death (Annexin V & Dead Cell Assay); type: cell-based, human; details: IC50 concentration
Excerpt: 2. Flow cytometric detection of cell death
The microcapillary flow cytometry (Muse™ Cell Analyzer, Luminex, Austin, TX) was used to determine cell death.
This method is based on detecting externalization of phosphatidylserine on the surface of cells undergoing apoptosis.
The technique allows quantitative analysis of non-apoptotic, early apoptotic, late apoptotic, and necrotic cells. The reagent mixture also contains the membrane non-permeable dye 7-aminoactinomycin D. This component distinguishes necrotic and late apoptotic cells from the live and early apoptotic cells. The measurement of cell death was carried out according to manufacturer instructions after 1, 4, and 24 h incubation with tested oxime reactivators and with oxime-free medium as an untreated control. During the first day of the experiment, cells were seeded into a 24-well plate (TPP) with a density of […]. After the incubation, cells from each well were collected into the polystyrene tube (TPP) and centrifuged for 5 min at 1000 × g at room temperature. The supernatant was discarded. The cell suspensions […]
were prepared in fresh medium DMEM. Afterward 100 μL of cell suspension were mixed with the 100 μL of Muse™ Annexin V & Dead Cell Assay reagent, and the samples were incubated for 20 min at room temperature in the dark.
Per measurement, 5000 cells were analyzed. Each experiment was performed in triplicates and repeated three independent times. The concentration of K048, K074, K075, and K203 oximes and TBHP (positive control) used in […]
After 1 h of incubation (Figure S-1.) with tested oxime reactivators and TBHP as the positive control, the percentage […]
A significant change in the percentage of
The amount of early apoptotic cells
. On the other hand, the percentage of late apoptotic cells was […]
control cells. The count of late apoptotic cells enlarged by 7.74, 4.71 , 4.17, 4.13, and 3.20 %, respectively. The statistical differences were also found in the percentage of necrotic cells in this time interval. The highest increment […]
K048, K074, K075, and K203 groups when compared with control.
K075, and K203 treated groups, respectively, when compared with control. Finally, the percentage of necrotic cells […]
Fig. S-1 The percentage of intact (white column), early (light grey column), late apoptotic (dark grey column), and necrotic HepG2 cells (black column) determined using microcapillary flow cytometry after 1 h, 4 h and 24 h treatment with oxime acetylcholinesterase reactivators or TBHP (positive control). Control represents the cells incubated with an oxime-free culture medium. One-way analysis of variance (ANOVA) followed by Dunnetʼs multiple comparison test was used for statistical analysis by GraphPad Prism 9 software version 9.3.0. Data are expressed as means ± standard deviation (SD) of three independent measurements (n = 3). Significant differences between oxime-treated and untreated control groups (p ≤ 0.05) and marked by asterisk (*).
3. Stability of oximes in DMEM medium at 37 °C over 24 hours
The stability of oximes K048, K074, K075, and K203 in DMEM medium, with concentrations corresponding to their […]
UV, following the chromatographic conditions described by Vanova et al. (2021)13. The results over the tested time […]
Fig. S-2 Data are expressed in percentage as means ± standard deviation (SD) of three independent measurements […]

HepG2 cells [5] = assay: Intracellular nonprotein thiols (NP-SH) by HPLC-UV; type: cell-based, human; details: IC50 concentration
Protocol: (§3) The culture medium was removed from a 25 cm^2 culture flask on the day of the experiment, and cells were washed twice with 3 mL of phosphate-buffered saline (PBS; GE Healthcare Life Sciences, South Logan, UT). Subsequently, 3 mL of a plain DMEM medium (negative control) and a DMEM medium containing TBHP (positive control) or individual oximes were added to each flask, and cells were incubated for 1, 4, and 24 h. The concentration of individual oxime and TBHP in the DMEM medium corresponded to the IC50 value. After incubation, the experimental medium was removed, and cells were washed with 3 mL of PBS and harvested by scraping. The resulting suspension was centrifuged at 220g and 21 °C for 5 min (Universal 320R centrifuge, Hettich, Tuttlingen, Germany). The supernatant was removed and dried cell pellets were stored at −80 °C. Each experiment was carried out in three independent replicates.
(§4) The cell pellets were thawed at room temperature, resuspended in 500 μL of ultrapure water (Millipore Purification System, Merck, Millipore, Darmstadt, Germany), and sonicated for 2 min (2 s cycle, amplitude 20%) in a Q500 homogenizer (QSONICA Sonicators, Newton). Then, the homogenate was divided into three parts: 250 μL for the determination of malondialdehyde (MDA), 100 μL for each determination of nonprotein thiols (NP-SH) and disulfides (NP-SS-NP), and 10 μL for the Bradford protein assay.
(§5) The HepG2 cell homogenate obtained, as described in Section 2.6, was processed for the determination of intracellular NP-SH and NP-SS-NP, according to Muckova et al.[11] The samples were analyzed using the HPLC system described above equipped with an SPD 20-AV Prominence UV/vis detector. The analysis was carried out on a Phenomenex LUNA C18 column (150 mm × 3 mm, 3 μm, 100 Å) protected with a Security Cartridge (4 mm × 2 mm, Phenomenex, Torrance) at 30 °C and a constant flow rate of 0.330 mL/using the mobile phase consisting of 0.9% aqueous FA (A) and ACN (B) under gradient conditions: 0–1 min 12% B, 1.1–2 min 12–55% B, 2–7 min 55% B, 7.1 min 55% B, and 7.1–10 min 12% B. The detector was set at 326 nm and the sample injection volume was 20 μL.

HepG2 cells [6] = assay: Colorimetric MTT cell viability assay, 24 h; details: read-out: IC50 (cytotoxicity, MTT assay), 24 h incubation
HepG2 cells [7] = assay: Intracellular nonprotein disulfides (NP-SS-NP) by HPLC-UV; type: cell-based, human; details: IC50 concentration
Protocol: as §3, §4, §5

rat plasma = details: in vivo, 23 mg/kg; cited from earlier work
HepG2 cells [8] = assay: Total intracellular MDA by LC-MS/MS; type: cell-based, human; details: IC50 concentration
HepG2 cells [9] = details: read-out: IC50 (cytotoxicity in HepG2 cells); conventional oximes; cited from earlier work
[10] = Colorimetric MTT cell viability assay, 24 h; details: human, HepG2 cells, IC50 (cytotoxicity, MTT assay), 24 h incubation

N[C@@H](CCC(=O)N[C@@H](CS)C(=O)NCC(=O)O)C(=O)O [reduced glutathione, glutathione, reference compound]
reduction of ROS production (HepG2 cells [1]): 87%

NC(=O)c1cc[n+](C/C=C/C[n+]2ccc(C=NO)cc2)cc1.[Br-].[Br-] [K203, 4-carbamoyl-1-((2E)-4-(4-((hydroxyimino)methyl)pyridin-1-ium-1-yl)but-2-en-1-yl)pyridin-1-ium dibromide]
increase of RONS (DCFH-DA probe) vs negative control (HepG2 cells [2]; 1 h incubation): 39.2%
increase of RONS (DCFH-DA probe) vs negative control (HepG2 cells [2]; 4 h incubation): 39.2%
increase of RONS (DCFH-DA probe) vs negative control (HepG2 cells [2]; 24 h incubation): 22.8%
increase of free radicals/RONS (DHE probe) vs negative control (HepG2 cells [3]): 8.5%
increase of RONS (DHE probe) vs negative control (HepG2 cells [3]; 24 h incubation): 22.1%
decrease in percentage of intact (live) cells vs control (HepG2 cells [4]; 1 h): ~8.43%
increase in early apoptotic cells vs control (HepG2 cells [4]; 1 h): ~1.51%
increase in late apoptotic cells vs control (HepG2 cells [4]; 1 h): 4.13%
decrease in percentage of live cells vs control (HepG2 cells [4]; 4 h): 8.8%
increase in late apoptotic cells vs control (HepG2 cells [4]; 4 h): 4.24%
increase in necrotic cell population vs control (HepG2 cells [4]; 4 h): 1.74%
decrease in percentage of intact cells vs control (HepG2 cells [4]; 24 h): 46.6%
increase in early apoptotic cells vs control (HepG2 cells [4]; 24 h): 13.3%
increase in late apoptotic cells vs control (HepG2 cells [4]; 24 h): 32.9%
decrease in NP-SH levels vs untreated control (HepG2 cells [5]; 1 h): 17.4%
decrease in NP-SH levels vs untreated control (HepG2 cells [5]; 24 h): 12.1%
IC50 (HepG2 cells [6]): 2.05 mM
resulting NP-SS-NP levels (in words) (HepG2 cells [7]; within the 24 h time frame): insignificant
reduction of ROS production (HepG2 cells [1]): 98%
low-molecular-weight antioxidants (LMWAs) in plasma (rat plasma): increase
resulting MDA levels (in words) (HepG2 cells [8]; within the 24 h time frame): insignificant

NC(=O)c1cc[n+](COC[n+]2ccccc2/C=N/O)cc1 [HI-6, asoxime]
IC50 (HepG2 cells [9]): ~3 mM

CC(C)(C)OO [TBHP, tert-butyl hydroperoxide, reference compound]
increase of RONS (DCFH-DA probe) vs negative control (HepG2 cells [2]; 1 h incubation): 16.7%
decrease of RONS (DCFH-DA probe) vs negative control (HepG2 cells [2]; 24 h incubation): 47.6%
increase of free radicals/RONS (DHE probe) vs negative control (HepG2 cells [3]): 30.7%
increase of RONS (DHE probe) vs negative control (HepG2 cells [3]; 4 h incubation): 111%
decrease in percentage of intact (live) cells vs control (HepG2 cells [4]; 1 h): ~11.6%
increase in late apoptotic cells vs control (HepG2 cells [4]; 1 h): 7.74%
increase in necrotic cells vs control (HepG2 cells [4]; 1 h): 3.24%
decrease in percentage of live cells vs control (HepG2 cells [4]; 4 h): 14.6%
increase in early apoptotic cells vs control (HepG2 cells [4]; 4 h): 1.02%
increase in late apoptotic cells vs control (HepG2 cells [4]; 4 h): 9.79%
increase in necrotic cell population vs control (HepG2 cells [4]; 4 h): 3.77%
decrease in percentage of intact cells vs control (HepG2 cells [4]; 24 h): 42.7%
increase in early apoptotic cells vs control (HepG2 cells [4]; 24 h): 7.42%
increase in late apoptotic cells vs control (HepG2 cells [4]; 24 h): 31.6%
increase in necrotic cells vs control (HepG2 cells [4]; 24 h): 3.66%
decrease in NP-SH levels vs untreated control (HepG2 cells [5]; 1 h): 24.6%
decrease in NP-SH levels vs untreated control (HepG2 cells [5]; 4 h): 45.0%
decrease in NP-SH levels vs untreated control (HepG2 cells [5]; 24 h): 53.1%
IC50 at 24 h [10]: 130 µM
increase in NP-SS-NP levels vs untreated control (HepG2 cells [7]; 1 h): 69.6%
increase in NP-SS-NP levels vs untreated control (HepG2 cells [7]; 4 h): 119%
increase in NP-SS-NP levels vs untreated control (HepG2 cells [7]; 24 h): 166%
increase of MDA levels vs untreated control (HepG2 cells [8]; 4 h incubation): 36.1%
increase of MDA levels vs untreated control (HepG2 cells [8]; 24 h exposure): 96.6%

O/N=C/c1cc[n+](CCC[n+]2ccc(/C=N/O)cc2)cc1 [TMB-4, trimedoxime]
IC50 (HepG2 cells [9]): ~22 mM

O/N=C/c1cc[n+](COC[n+]2ccc(/C=N/O)cc2)cc1 [LüH-6, obidoxime]
IC50 (HepG2 cells [9]): ~4 mM

O/N=C/c1cc[n+](C[n+]2ccc(/C=N/O)cc2)cc1 [MMB-4, methoxime]
IC50 (HepG2 cells [9]): ~1 mM

Reference: PMC10731658 (Chemical Research in Toxicology, 2023)
